Here are results for four molecules from patent US4220643A, “Nitrosourea pentose compounds” (priority 1977, dated 1980).

The structures appear in SMILES notation.

For data set [1], the system named is experimental tumors. The following applies: wide variety of experimental tumors; refers to U.S. Pat. No. 4,086,415; cited from earlier work.
Data set [2] relates to Leukemia L 1210 cells. Put plainly: Anti-leukemic activity on Leukemia L 1210 in mice (60 days observation). The format is in vivo, mice (male BDF1). The following applies: for ILS (percentage increase in life-span) / Mean survival days: 60 days observation. The protocol: The anti-leukemic activity of both the anomers of this invention was tested on Leukemia L 1210 in mice, details of which are given below. By way of comparison, the 1-methyl homologue of the β-anomer of this invention, i.e. 1-methyl-1-nitroso-3-(β-D-ribofuranosyl) urea (refer to T. Suami et al., Japanese Patent Prepublication No. 83365/75), was tested in a similar way.
Male BDF1 mice, aged about 7-weeks old and weighing 22±3 g were used in groups of three animals each for the test of compounds No. 1 and No. 2 or of two animals each for the test of compound No. 3.
Leukemia L 1210 cells were used. For the test of compounds No. 1 and No. 2, 2×10^6 cells/0.04 ml/mouse were intraperitoneally inoculated and for the test of compound No. 3, 1.8×10^6 /0.04 ml/mouse were intraperitoneally inoculated.
The test compound was dissolved in a physiological salt solution to give a series of solutions in predetermined concentrations and 0.1 ml of the each solution was administered intraperitoneally to each mouse once a day from the 24th hour after the tumor cell inoculation for 3 consecutive days for the test of compounds No. 1 and No. 2 or for 2 consecutive days for the test of compound No. 3. The anti-leukemic activity of the compounds tested was assessed by mean survival days, percentage increase in life-span, number of survivors after 60 days observation and the volume of ascites. The percentage increase in life-span (ILS) was calculated as follows: […]
T: The mean survival days of the treated animals
C: The mean survival days of the untreated animals
The control test for this purpose was carried out in the same way as that used for the test of compounds No. 1 and No. 2 or for the test of compound No. 3 except that 0.1 ml of the physiological salt solution was administered in place of the solution of the test compound.

Data set [3] is described as follows: Acute toxicity in intraperitoneal administration to BDF1 mice. The following applies: mouse, in vivo, ip. The source says:
The nitrosourea compounds according to this invention are further characterized by their low toxicity. Thus, acute toxicity of the compounds in intraperitoneal administration to BDF1 mice is as follows: […]

The mark [4] stands for this setting: 1 mg/kg i.p. once daily, 3 consecutive days.
Setting [5] is: 2 mg/kg i.p. once daily, 3 consecutive days.
[6] abbreviates: 2 mg/kg i.p. once daily, 3 consecutive days, untreated control 4.5 ml.
The mark [7] stands for this setting: 4 mg/kg i.p. once daily, 3 consecutive days.
The mark [8] stands for this setting: 4 mg/kg i.p. once daily, 3 consecutive days, untreated control 4.5 ml.
The mark [9] stands for this setting: 8 mg/kg i.p. once daily, 3 consecutive days.
The mark [10] stands for this setting: 8 mg/kg i.p. once daily, 3 consecutive days, untreated control 4.5 ml.
The mark [11] stands for this setting: 16 mg/kg i.p. once daily, 3 consecutive days.
The mark [12] stands for this setting: 16 mg/kg i.p. once daily, 3 consecutive days, untreated control 4.5 ml.
[13] abbreviates: dose not given, i.p. once daily, 3 consecutive days.
The mark [14] stands for this setting: 50 mg/kg i.p. once daily, 2 consecutive days.
Setting [15] is: 100 mg/kg i.p. once daily, 2 consecutive days.
[16] abbreviates: 200 mg/kg i.p. once daily, 2 consecutive days.
Setting [17] is: 250 mg/kg i.p. once daily, 2 consecutive days.

With `O=NN(CCCl)C(=O)N[C@@H]1O[C@H](CO)[C@@H](O)[C@H](O)[C@H]1O` [GANU, 1-(2-chloroethyl)-3-(β-D-glucopyranosyl)-1-nitrosourea], the “Antitumor activity, in words” value in data set [1] was “broad spectrum of antitumor activity against a wide variety of experimental tumors”.
Turning to `O=NN(CCCl)C(=O)N[C@H]1O[C@H](CO)[C@@H](O)[C@H]1O` [compound 1, 1-(2-chloroethyl)-1-nitroso-3-(α-D-ribofuranosyl) urea], the “Number of survivors (after 60 days)” value in data set [2] (setting [4]) is recorded as 0/3; in data set [2] (setting [5]), 0/3; in data set [2] (setting [7]) it was 2/3; in data set [2] (setting [9]), 2/3; in data set [2] (setting [11]), 0/3. Besides, the “ILS (percentage increase in life-span)” value in data set [2] (setting [4]) is on record as 37.0%; in data set [2] (setting [5]), 50.0%; in data set [2] (setting [7]), above 383.0%; in data set [2] (setting [9]), above 323.0%; in data set [2] (setting [11]), 13.0%. For the same molecule, the Mean survival days in data set [2] (setting [4]) is listed as 13.7 days; in data set [2] (setting [5]), 15.3 days; in data set [2] (setting [7]) it was above 48.3 days; in data set [2] (setting [9]), above 42.3 days; in data set [2] (setting [11]) it was 11.3 days. In addition, the Volume of ascites in data set [2] (1 mg/kg i.p. once daily, 3 consecutive days, untreated control 4.5 ml) was found to be 1.7 mL; in data set [2] (setting [6]), 0 mL; in data set [2] (setting [8]), 0 mL; in data set [2] (setting [10]) it was 0 mL; in data set [2] (setting [12]) it was 0 mL. In data set [3], this molecule yielded a median lethal dose (LD50) of 34 mg/kg.
As for `O=NN(CCCl)C(=O)N[C@@H]1O[C@H](CO)[C@@H](O)[C@H]1O` [compound 2, 1-(2-chloroethyl)-1-nitroso-3-(β-D-ribofuranosyl) urea], the “Number of survivors (after 60 days)” value in data set [2] (setting [5]) is reported as 1/3; in data set [2] (setting [7]), 2/3; in data set [2] (setting [9]), 3/3; in data set [2] (setting [11]) it was 0/3; in data set [2] (setting [13]) it was 0/3. For the same molecule, the “ILS (percentage increase in life-span)” value in data set [2] (setting [5]) is above 223.0%; in data set [2] (setting [7]) it was above 360.0%; in data set [2] (setting [9]) it was above 500.0%; in data set [2] (setting [11]), -13.0%; in data set [2] (setting [13]), 53.0%. Besides, the Mean survival days in data set [2] (setting [5]) is above 32.3 days; in data set [2] (setting [7]), above 46.0 days; in data set [2] (setting [9]), above 60.0 days; in data set [2] (setting [11]) it was 8.7 days; in data set [2] (setting [13]), 15.3 days. The Volume of ascites in data set [2] (setting [6]) stood at 0 mL; in data set [2] (setting [8]), 0 mL; in data set [2] (setting [10]) it was 0 mL; in data set [2] (setting [12]), 0 mL; in data set [2] (dose not given, i.p. once daily, 3 consecutive days, untreated control 4.5 ml), 2.5 mL. In data set [3], this molecule came in with a median lethal dose (LD50) of 30 mg/kg.
On to `CN(N=O)C(=O)N[C@@H]1O[C@H](CO)[C@@H](O)[C@H]1O` [compound 3, 1-methyl-1-nitroso-3-(β-D-ribofuranosyl) urea, reference compound], for which the “Number of survivors (after 60 days)” value in data set [2] (setting [14]), in data set [2] (setting [15]), in data set [2] (setting [16]) and in data set [2] (setting [17]) was 0/2 in each case. The “ILS (percentage increase in life-span)” value in data set [2] (setting [14]) is recorded as 50.0%; in data set [2] (setting [15]), 50.0%; in data set [2] (setting [16]), 80.0%; in data set [2] (setting [17]), 15.0%. The Mean survival days worked out at 15.0 days in data set [2] (setting [14]), 15.0 days in data set [2] (setting [15]), 18.0 days in data set [2] (setting [16]) and 11.5 days in data set [2] (setting [17]). Also, the Volume of ascites worked out at 4.6 mL in data set [2] (50 mg/kg i.p. once daily, 2 consecutive days, untreated control 5.3 ml); 0.7 mL in data set [2] (100 mg/kg i.p. once daily, 2 consecutive days, untreated control 5.3 ml); 0.3 mL in data set [2] (200 mg/kg i.p. once daily, 2 consecutive days, untreated control 5.3 ml); 0.6 mL in data set [2] (250 mg/kg i.p. once daily, 2 consecutive days, untreated control 5.3 ml).

Usually LD50 stands for the dose expected to kill half of the subjects tested. Lower therefore signals a more toxic substance.
